From the supplement of paper PMC10627819

Assays:
S. aureus DSM 20231 [1] = experiment: fitness (endpoint OD595 vs no drug) (fraction); higher = more growth
Summary of the method: (§1)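 Fitness was defined as the optical density at the transition into stationary phase relative to the robust mean of no-drug control wells. Values were capped at 1. Cultures were started at OD595 0.01 in 384-well plates (30 µl, or 55 µl for S. pneumoniae) in TSB, LB Lennox or CY at 37 °C. OD595 was recorded every 30 min over 14 h, with the first reading subtracted as background.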

S. aureus Newman = experiment: as above
Summary of the method: as §1

S. pneumoniae D39V = experiment: Bliss interaction score (quartile over a dose matrix) (fitness difference); higher = more antagonism (negative = synergy)
Summary of the method: (§2)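 The Bliss score was calculated by subtracting the expected fitness, the product of single-drug values, from the observed fitness. OD595 at entry into stationary phase, over the plate's robust no-drug mean and capped at 1, served as the fitness readout. Single-drug values were inferred from combination data, and scores are summarised by quartiles across technical, biological and donor/recipient replicates.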

B. subtilis 168 = experiment: as above
Summary of the method: as §2

S. aureus DSM 20231 [2] = experiment: as above
Summary of the method: as §2

[3] = first compound 0.75 µg/mL, partner 12.5 µg/mL
[4] = first compound 0.75 µg/mL, partner 25 µg/mL
[5] = first compound 0.75 µg/mL, partner 50 µg/mL
[6] = first compound 1.5 µg/mL, partner 12.5 µg/mL
[7] = first compound 1.5 µg/mL, partner 50 µg/mL
[8] = first compound 3 µg/mL, partner 12.5 µg/mL
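For Bliss interaction score (quartile over a dose matrix) in this document: first quartile when negative (synergy) and third quartile when positive (antagonism).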

O=C(N[C@H](CO)[C@H](O)c1ccc([N+](=O)[O-])cc1)C(Cl)Cl [Chloramphenicol] + O=C(O[C@@H]1Cc2c(O)cc(O)cc2O[C@@H]1c1cc(O)c(O)c(O)c1)c1cc(O)c(O)c(O)c1 [EGCG]
fitness (S. aureus DSM 20231 [1]; [3]): 0.653 | fitness (S. aureus DSM 20231 [1]; [4]): 0.646 | fitness (S. aureus DSM 20231 [1]; [5]): 0.669 | fitness (S. aureus DSM 20231 [1]; [6]): 0.56 | fitness (S. aureus DSM 20231 [1]; first compound 1.5 µg/mL, partner 25 µg/mL): 0.572 | fitness (S. aureus DSM 20231 [1]; [7]): 0.494 | fitness (S. aureus DSM 20231 [1]; [8]): 0.15 | fitness (S. aureus DSM 20231 [1]; first compound 3 µg/mL, partner 25 µg/mL): 0.136 | fitness (S. aureus DSM 20231 [1]; first compound 3 µg/mL, partner 50 µg/mL): 0.0905 | fitness (S. aureus Newman; [3]): 0.649 | fitness (S. aureus Newman; [4]): 0.699 | fitness (S. aureus Newman; [5]): 0.699 | fitness (S. aureus Newman; [6]): 0.602 | fitness (S. aureus Newman; [7]): 0.509 | fitness (S. aureus Newman; [8]): 0.189 | Bliss interaction score (S. pneumoniae D39V): -0.0762 | Bliss interaction score (B. subtilis 168): 0.103 | Bliss interaction score (S. aureus DSM 20231 [2]): 0.0831

O=C(N[C@H](CO)[C@H](O)c1ccc([N+](=O)[O-])cc1)C(Cl)Cl [Chloramphenicol] + C[C@H]1COc2c(N3CCN(C)CC3)c(F)cc3c(=O)c(C(=O)O)cn1c23 [Levofloxacin]
Bliss interaction score (S. pneumoniae D39V): 0.0655 | Bliss interaction score (B. subtilis 168): 0.0387 | Bliss interaction score (S. aureus DSM 20231 [2]): 0.0741

O=C(N[C@H](CO)[C@H](O)c1ccc([N+](=O)[O-])cc1)C(Cl)Cl [Chloramphenicol] + CC(C1CCC(C(O1)OC2C(CC(C(C2O)OC3C(C(C(CO3)(C)O)NC)O)N)N)N)NC [Gentamicin]
fitness (S. aureus Newman; first compound 0.75 µg/mL, partner 0.375 µg/mL, main component drawn): 0.778 | fitness (S. aureus Newman; first compound 0.75 µg/mL, partner 0.5 µg/mL, main component drawn): 0.868 | fitness (S. aureus Newman; first compound 0.75 µg/mL, partner 0.75 µg/mL, main component drawn): 0.778 | fitness (S. aureus Newman; first compound 0.75 µg/mL, partner 1 µg/mL, main component drawn): 0.974 | fitness (S. aureus Newman; first compound 0.75 µg/mL, partner 1.5 µg/mL, main component drawn): 0.765 | fitness (S. aureus Newman; first compound 0.75 µg/mL, partner 2 µg/mL, main component drawn): ≥ 1 | fitness (S. aureus Newman; first compound 1.5 µg/mL, partner 0.375 µg/mL, main component drawn): 0.507 | fitness (S. aureus Newman; first compound 1.5 µg/mL, partner 0.5 µg/mL, main component drawn): 0.775 | fitness (S. aureus Newman; first compound 1.5 µg/mL, partner 0.75 µg/mL, main component drawn): 0.543 | fitness (S. aureus Newman; first compound 1.5 µg/mL, partner 1 µg/mL, main component drawn): 0.893 | fitness (S. aureus Newman; first compound 1.5 µg/mL, partner 1.5 µg/mL, main component drawn): 0.561 | fitness (S. aureus Newman; first compound 1.5 µg/mL, partner 2 µg/mL, main component drawn): 0.871 | fitness (S. aureus Newman; first compound 3 µg/mL, partner 0.375 µg/mL, main component drawn): 0.208 | fitness (S. aureus Newman; first compound 3 µg/mL, partner 0.5 µg/mL, main component drawn): 0.436 | fitness (S. aureus Newman; first compound 3 µg/mL, partner 0.75 µg/mL, main component drawn): 0.223 | fitness (S. aureus Newman; first compound 3 µg/mL, partner 1 µg/mL, main component drawn): 0.487 | fitness (S. aureus Newman; first compound 3 µg/mL, partner 1.5 µg/mL, main component drawn): 0.231 | fitness (S. aureus Newman; first compound 3 µg/mL, partner 2 µg/mL, main component drawn): 0.512 | Bliss interaction score (S. pneumoniae D39V; main component drawn): -0.162 | Bliss interaction score (B. subtilis 168; main component drawn): 0.13 | Bliss interaction score (S. aureus DSM 20231 [2]; main component drawn): 0.0877

CCC[C@@H]1C[C@@H](C(=O)N[C@@H]([C@H]2O[C@H](SC)[C@H](O)[C@@H](O)[C@H]2O)[C@H](C)Cl)N(C)C1 [Clindamycin] + C[C@H]1C[C@@H]2[C@H]([C@@H](O)C[C@@]3(C)[C@H]2CC[C@]3(O)C(=O)CO)[C@@]2(C)C=CC(=O)C=C12 [Methylprednisolone]
Bliss interaction score (S. aureus DSM 20231 [2]): -0.274
